Tests used:
pilosebaceous units = test: ALA-induced PpIX fluorescence in skin (fluorescence microscopy / photography); type: in vivo, human
Method: Punch biopsy specimens (4 mm) were taken immediately after PDT, a few weeks after PDT, and at 20 weeks from both the untreated control and ALA-PDT areas. […] Histologic examination was performed. […] To determine the level of PpIX converted from ALA in the pilosebaceous units, punch biopsy specimens were also taken from ALA-treated areas after 3 h occlusion as described above.

acne vulgaris [1] = test: Global clinical-improvement grading by blinded dermatologists from photographs; type: in vivo, human
Method: (§1) Sites were marked withtemplates to precisely relocate each test area. […] Then, 20% topical ALA in a hydroalcoholic vehicle (Levulan, a gift from DUSA pharmaceutical) was applied for 3h under occlusion with plastic film (Saran wrap), and 150 J/cm^2 broad band light (550-700 nm) was given to the ALA-PDT and light alone areas. […] In both groups, subjects returned one week after treatments for clinical evaluations and at weeks 2, 3, 10 and 20 for clinical, fluorescence, and SER evaluations.
Clinical improvement was globally assessed by 3 dermatologists unaware of the status of treatment, who blindly graded changes in acne from fixed-magnification clinical photographs, after being shown a small set standardized series of training slides not used in the data evaluation. The grading scale was defined as −3 for >50% exacerbation, −2 for 25^+−50% exacerbation, −1 for 1^+−25% exacerbation, 0 if unchanged, 1 for 1^+−25% improvement, 2 for 25^+−50% improvement, 3 for 50^+−75% improvement, 4 for 75^+−99% improvement, and 5 for 100% improvement, as compared to the baseline.
(§2) Statistical significance was defined as p value of less than 0.05.

[2] = Adverse effects, clinical evaluation and subjective sensation; type: in vivo, human; settings: for Subjects with burning sensation / Subjects with itching: multiple ALA-PDT
Method: Adverse effects were scored by clinical evaluation of erythema, edema, loss of epidermis, hyperpigmentation, hemorrhage, vesiculation, and exfoliation on a visual-analogue scale from 0 to 3 (0=absent, 1=mild, 2=moderate, 3=severe) for each finding. Subjective sensation of pain, burning, and itching was generally maximum about 10 minutes into light exposure, and was ranked at that time and the end of treatment (1 hour), by subjects on a scale from 0 to 3 similar to above.

sebaceous glands [3] = test: Histologic examination and planimetry of punch biopsies; settings: for Reduction of cytoplasm/nuclear cross-section area ratio in sebocyte relative to non-treatment: 3 weeks
P. acnes = test: Fluorescence photography of follicular bacterial porphyrin (red fluorescent dots); type: in vivo, human
Method: as §1
A Nikon E2N digital camera body with a Nikon 105 mm macro lens was used. A filter (Corion LL-550S) was placed on the lens to block light below 550 nm. The excitation light source was composed of two synchronized photoflashes with Norman 400 watt-second lampheads (FT400/FT6), mounted on a stationary tower with angles of incidence of 60 degrees bilaterally. Two 400 nm bandpass filters with 5 nm bandwidth (Corion S40-400S) were placed on the flashes. By this method, the punctate orange-red fluorescence of hair follicles populated with P. acnes was seen. Fluorescence emission has been attributed to bacterial coproporphyrin III and protoporphyrin IX, and intensity of fluorescence is related to the P. acnes population. Fluorescence photography was performed at week, 0, 2, 3, 10 and 20 in all sites. The number of punctate red flourescent dots was counted blindly for each test area.
as §2

sebaceous glands [4] = test: Sebum excretion rate (SER) by Sebutape; settings: ALA plus red light
acne vulgaris [5] = test: Inflammatory acne score, open-label human study of topical ALA-PDT on the back
[6] = multiple treatments, ALA plus red light
[7] = single treatment, ALA plus red light
[8] = multiple-treatment subjects, after 4 treatments
[9] = single-treatment subjects, at 20 weeks
[10] = multiple treatment group, 20 weeks after the last treatment
[11] = twenty weeks after a single ALA-PDT treatment

NCC(=O)CCC(=O)O [ALA, 5-aminolevulinic acid]
Porphyrin fluorescence of fresh-frozen sections compared with untreated skin (pilosebaceous units; after ALA application, 3 h occlusion, fluorescence microscopy): bright porphyrin fluorescence in epidermis and pilosebaceous units
PpIX fluorescence, sebocytes versus follicular epithelial cells (pilosebaceous units; after ALA application, fluorescence microscopy): brighter PpIX fluorescence in sebocytes than in the adjacent follicular epithelial cells
ALA-induced PpIX fluorescence, acne lesions versus surrounding tissue (pilosebaceous units; fluorescence photography): greater in acne lesions than surrounding tissue
Global clinical-improvement score, multiple versus single treatment group (acne vulgaris [1]; ALA plus red light, first 2 follow-up visits (week 1 & 2)): significantly better improvement than the single ALA-PDT treatment group
Duration of obvious and significant improvement of acne, blinded clinical assessment (acne vulgaris [1]; after 4 treatments): at least 20 weeks
Duration of obvious and significant improvement of acne, blinded clinical assessment (acne vulgaris [1]; after a single ALA-PDT treatment): at least 10 weeks
Global clinical-improvement score versus baseline (acne vulgaris [1]; multiple treatments, ALA alone, visit 2 and visit 5): improvement reaching statistical significance
Global clinical-improvement score versus baseline (acne vulgaris [1]; [6]): Significant improvement
Global clinical-improvement score versus the other 3 sites (acne vulgaris [1]; [6]): significantly better improvement in the ALA-PDT treated site than the other 3 sites, at all follow-up visits
Global clinical-improvement score versus baseline (acne vulgaris [1]; [7]): significant global improvement starting week 3 and extending through week 20
Global clinical-improvement score, difference to the other three treatment sites (acne vulgaris [1]; [7]): statistically significant at weeks 3 and 10
Patients with acute eruption of inflammatory acneiform lesions ([2]; ALA-PDT sites only, both groups): 100%
Exfoliation after 3 weeks post treatment ([2]; all subjects): None of the subjects had exfoliation
Scarring ([2]; all subjects, both groups): no site in any subject had any scarring
Erythema and edema, time course ([2]; both groups, 1 hour after treatment): substantial decrease in erythema and edema by 1 hour after treatment
Subjects with burning sensation ([2]; treatment 1): 9%
Subjects with itching ([2]; treatment 1): 73%
Subjects with burning sensation ([2]; treatment 2): 67%
Subjects with itching ([2]; treatment 2): 73%
Subjects with burning sensation ([2]; treatment 3): 67%
Subjects with itching ([2]; treatment 3): 55%
Subjects with burning sensation ([2]; treatment 4): 73%
Subjects with itching ([2]; treatment 4): 55%
Subjects still showing some degree of pigmentation ([2]; multiple PDT, 20 weeks after treatment): 55%
Patients who could not continue the weekly treatment scheme and had to postpone their next treatment ([2]; multiple treatment group): Six
Acneiform lesions induced by subsequent treatments ([2]; multiple-treatment group): almost no new acneiform lesions were observed after treatment 4
Duration of transient purpura, average [2, 8]: 1 week
Subjects with superficial but very prominent exfoliation, transient purpura and partial loss of epidermis [2, 8]: 10%
Main subjective discomfort ([2]; single ALA-PDT group): itching was the main discomfort in the single ALA-PDT group, and pain was the least
Subjects in whom erythema faded away completely [2, 9]: 82%
Subjects in whom hyperpigmentation faded away completely [2, 9]: 91%
Reduction of sebaceous gland size compared with untreated control area (sebaceous glands [3]; 3 weeks after multiple ALA-PDT): 55%
Reduction of sebaceous gland size compared with untreated control area (sebaceous glands [3]; 3 weeks after single ALA-PDT): 30%
Histologic finding in sebaceous gland lobules (sebaceous glands [3]; 20 weeks after multiple ALA-PDT treatments): complete destruction or 25 marked atrophy of sebaceous gland lobules
Reduction of sebaceous gland size, mean decrease (sebaceous glands [3]; immediately after PDT): 40%
Reduction of cytoplasm/nuclear cross-section area ratio in sebocyte relative to non-treatment (sebaceous glands [3]; multiple PDT): 56%
Reduction of sebaceous gland size (sebaceous glands [3]; [10]): 45%
Reduction of sebaceous gland size, range (sebaceous glands [3]; [10]): 15-80%
Reduction of sebocyte cytoplasm/nuclear area (sebaceous glands [3]; [10]): 46%
Reduction of sebocyte cytoplasm/nuclear area, range (sebaceous glands [3]; [10]): 39-53%
Reduction of cytoplasm/nuclear cross-section area ratio in sebocyte relative to non-treatment (sebaceous glands [3]; single PDT): 38%
Reduction of sebaceous gland size, mean decrease (sebaceous glands [3]; [11]): 17%
Sebocyte cytoplasm/nuclear area ratio (sebaceous glands [3]; [11]): not reduced
Fluorescence related to P. acnes, multiple versus single treatment group (P. acnes; ALA plus red light, four times versus single): better, but not significant, improvement
Duration of significant decrease of fluorescence of endogenous porphyrins associated with P. acnes (P. acnes; after both single and multiple ALA-PDT): at least 20 weeks
Fluorescence related to P. acnes versus baseline (P. acnes; multiple treatments, ALA alone, week 10 and 20): significantly greater fluorescence than baseline
Fluorescence related to P. acnes versus baseline (P. acnes; [6]): significant loss of P. acnes, fluorescence, starting at follow-up visit 2
Fluorescence related to P. acnes, difference to the other 3 test sites (P. acnes; [6]): statistically significant for all visits
Fluorescence related to P. acnes versus baseline (P. acnes; [7]): significant loss of fluorescence related to P. acnes, which lasted for all 4 follow-up visits
Fluorescence related to P. acnes, difference to the other 3 test sites (P. acnes; [7]): statistically significant for all visits
Sebum excretion after PDT (summary) (sebaceous glands [4]): eliminated for several weeks, and decreased for 20 weeks
SER, multiple versus single treatment group (sebaceous glands [4]; difference significant only at 20 weeks, all visits combined p=0.001): suppressed SER more than single ALA-PDT
SER, difference to the other 3 areas (sebaceous glands [4]; multiple treatments): statistically significant at all 4 visits
Sebum excretion rate (SER) versus baseline (sebaceous glands [4]; multiple treatments): significant decrease in SER, at all follow-up visits
SER versus the other test sites (sebaceous glands [4]; single treatment): significantly lower than any other test sites, at each follow-up visit
Sebum excretion rate (SER) versus baseline (sebaceous glands [4]; single treatment, weeks 2, 3, 20): significant decrease of SER
Inflammatory acne score, multiple versus single treatment group, all follow-up visits combined (acne vulgaris [5]; ALA alone, P=0.007): better improvement than the single treatment group
Inflammatory acne score, multiple versus single treatment group (acne vulgaris [5]; ALA plus red light, first 3 follow-up visits): significantly better improvement than the single ALA-PDT treatment group
Inflammatory acne score, multiple versus single treatment group, all follow-up visits combined (acne vulgaris [5]; ALA plus red light, p<0.001): better improvement than the single treatment group
Duration of clinical and statistically significant clearance of inflammatory acne (acne vulgaris [5]; after a single treatment): ≥ 10 weeks
Duration of clinical and statistically significant clearance of inflammatory acne (acne vulgaris [5]; after multiple ALA-PDT treatments): at least 20 weeks
Inflammatory acne score, change from baseline (acne vulgaris [5]; multiple (4 weekly) treatments, ALA plus red light): obvious and statistically significant improvement in acne at all follow-up visits
Inflammatory acne score, change from baseline (acne vulgaris [5]; multiple treatments, ALA alone, no light): no improvement
Inflammatory acne score, change from baseline versus the other three sites (acne vulgaris [5]; multiple treatments, ALA plus red light, all visits, p<0.05): significantly greater
Inflammatory acne score, ALA alone versus untreated area (acne vulgaris [5]; multiple treatments, visit 2 (week 2) only, p=0.046): barely-significant improvement
Inflammatory acne score, change from baseline (acne vulgaris [5]; single treatment, 20% topical ALA 3 h occlusion + 150 J/cm^2 red light): improvement in acne, which was statistically significant starting 3 weeks after treatment
Inflammatory acne score, change from baseline (acne vulgaris [5]; single treatment, ALA alone, no light, all visits): slightly worse acne not significantly different than baseline
Inflammatory acne score, change from baseline versus the other three areas (acne vulgaris [5]; [7]): the differences were statistically significant at 3, 10, 20 weeks
